Results taken from PubChem BioAssay AID651893 (Broad Institute, 2012).

Tested on: T. b. rhodesiense STIB900 proliferation, Alamar blue, 72 h
Experiment: African trypanosome bloodstream form growth inhibition – STIB900 strain, plate reader, cherry pick, dose response (AID 651893)

## C[C@@H]1CN([C@@H](C)CO)C(=O)c2cccc(NC(=O)c3ccncc3)c2O[C@H]1CN(C)Cc1ccc(Oc2ccccc2)cc1
  IC50: 715 nM
